Measurements taken from patent US20170143674A1, “Use of Glutaryl Histamine for the Treatment of Respiratory Tract Diseases” (LTD "VALENTA-INTELLEKT", priority 2011, published 2017).

Key:
[1] = system: Escherichia coli (mouse-adapted strain 4300); experiment: animal or person; assay type: in vivo, mice; conditions: for Mortality rate (%) / Survival rate (%): tenth day
Description: Escherichia coli (mouse-adaptedstrain 4300, Institute collection) was used as an infectious agent. Mice were infected intravenously.
Firstly, there were determined a lethal dose (LD100) of Escherichia coli to be intravenously administered to this line of mice with a certain weight. Fatal cases among mice were registered every day for ten days. […] For this purpose, mice were housed into cages (10 animals per cage) and infected with a lethal dose of Escherichia coli. One hour after each mouse was administered orally levofloxacin in doses of 1, 2, 4, 6, 8, 10, and 12 mg/kg. A group of mice infected with a lethal dose of Escherichia coli without the treatment was considered as a control group. Fatal cases among mice were registered every day for ten days.
The next step of the experiment was to study an effect of combined administration of glutaryl histamine and levofloxacin on a model of E. coli sepsis in mice.
(§1) In the experiment, mice were housed in following groups (10 animals per cage):
Glutaryl histamine was administered orally in the corresponding doses to mice of groups 3, 4, 5, 6, 7, and 8 for 5 days. Five day after, all groups of mice were intravenously administered 0.2 ml of Escherichia coli in the lethal dose. […] After infection and administration of levofloxacin, glutaryl histamine was administered to mice of groups 3-8 for additional 5 days. During the experiment, the animals were observed every day, and fatal cases were registered (see Table 14).

[2] = system: Staphylococcus aureus (mouse-adapted strain 10); experiment: animal or person; assay type: in vivo, mice; conditions: for Mortality rate (%) / Survival rate (%): tenth day
Description: The tested medicament was glutaryl histamine in doses of 15, 30 and 45 mg/kg. Solutions of the tested medicament for oral administration were prepared ex tempore. Levofloxacin (in oral administration) was used as a therapeutic preparation since this substance was the most experimentally studied antibiotic approved in clinical practice many years ago.
Staphylococcus aureus (mouse-adaptedstrain 10) was used as an infectious agent. Mice were infected intravenously.
Firstly, there was determined a lethal dose (LD100) of staphylococcus to be intravenously administered to this line of mice having a certain weight. Fatal cases among mice were registered every day for ten days. The lethal dose was 3×10^8 CFU/mouse. […] For this purpose, mice were housed into cages (10 animals per cage) and infected with a lethal dose of staphylococcus. One hour after each mouse was administered orally levofloxacin in doses of 1, 2, 4, 6, 8, 10, and 12 mg/kg. A group of mice infected with a lethal dose of staphylococcus without the treatment was considered as a control group. Fatal cases among mice were registered every day for ten days.
The next step of the experiment was to study an effect of combined administration of glutaryl histamine and levofloxacin on a model of staphylococcal sepsis in mice.
as §1
Glutaryl histamine was administered orally in the corresponding doses to the mice of groups 3, 4, 5, 6, 7, and 8 for 5 days. Five day after, all groups of mice were intravenously administered with 0.2 ml of Staphylococcus aureus in the lethal dose. […] After infection and administration of levofloxacin, glutaryl histamine was administered to mice of groups 3-8 for additional 5 days. During the experiment, the animals were observed every day, and fatal cases were registered (see Table 13).

[3] = day 1, glutaryl histamine 15 mg/kg
[4] = day 1, glutaryl histamine 30 mg/kg
[5] = day 1, glutaryl histamine 45 mg/kg
[6] = day 2, glutaryl histamine 15 mg/kg
[7] = day 2, glutaryl histamine 30 mg/kg
[8] = day 2, glutaryl histamine 45 mg/kg
[9] = day 3, glutaryl histamine 15 mg/kg
[10] = day 3, glutaryl histamine 30 mg/kg
[11] = day 3, glutaryl histamine 45 mg/kg
[12] = day 4, glutaryl histamine 15 mg/kg
[13] = day 4, glutaryl histamine 30 mg/kg
[14] = day 4, glutaryl histamine 45 mg/kg
[15] = day 5, glutaryl histamine 15 mg/kg
[16] = day 5, glutaryl histamine 30 mg/kg
[17] = day 5, glutaryl histamine 45 mg/kg
[18] = day 6, glutaryl histamine 15 mg/kg
[19] = day 6, glutaryl histamine 30 mg/kg
[20] = day 6, glutaryl histamine 45 mg/kg
[21] = day 7, glutaryl histamine 15 mg/kg
[22] = day 7, glutaryl histamine 30 mg/kg
[23] = day 7, glutaryl histamine 45 mg/kg
[24] = day 8, glutaryl histamine 15 mg/kg
[25] = day 8, glutaryl histamine 30 mg/kg
[26] = day 8, glutaryl histamine 45 mg/kg
[27] = day 9, glutaryl histamine 15 mg/kg
[28] = day 9, glutaryl histamine 30 mg/kg
[29] = day 9, glutaryl histamine 45 mg/kg
[30] = day 10, glutaryl histamine 15 mg/kg
[31] = day 10, glutaryl histamine 30 mg/kg
[32] = day 10, glutaryl histamine 45 mg/kg

With `O=C(O)CCCC(=O)NCCc1c[nH]cn1` [glutaryl histamine] the died/survived animals [1, 3] was 0/10, the died/survived animals [1, 4] was 0/10 and the died/survived animals [1, 5] was 0/10. The died/survived animals [1, 6] was 0/10, the died/survived animals [1, 7] was 0/10 and the died/survived animals [1, 8] was 1/9. For the same molecule, the died/survived animals [1, 9] was 0/10, the died/survived animals [1, 10] was 0/10 and the died/survived animals [1, 11] was 1/9. For the same molecule, the died/survived animals [1, 12] was 1/9, the died/survived animals [1, 13] was 1/9 and the died/survived animals [1, 14] was 3/7. The died/survived animals [1, 15] was 2/8, the died/survived animals [1, 16] was 3/7 and the died/survived animals [1, 17] was 5/5. The died/survived animals [1, 18] was 5/5, the died/survived animals [1, 19] was 6/4 and the died/survived animals [1, 20] was 7/3. The died/survived animals [1, 21] was 6/4, the died/survived animals [1, 22] was 7/3 and the died/survived animals [1, 23] was 8/2. For the same molecule, the died/survived animals [1, 24] was 8/2, the died/survived animals [1, 25] was 7/3 and the died/survived animals [1, 26] was 9/1. For the same molecule, the died/survived animals [1, 27] was 8/2, the died/survived animals [1, 28] was 8/2 and the died/survived animals [1, 29] was 9/1. The died/survived animals [1, 30] was 8/2, the died/survived animals [1, 31] was 8/2 and the died/survived animals [1, 32] was 9/1. For the same molecule, the “Mortality rate (%)” value ([1]; glutaryl histamine 15 mg/kg) was 80%, the “Survival rate (%)” value ([1]; glutaryl histamine 15 mg/kg) was 20% and the “Mortality rate (%)” value ([1]; glutaryl histamine 30 mg/kg) was 80%. For the same molecule, the “Survival rate (%)” value ([1]; glutaryl histamine 30 mg/kg) was 20%, the “Mortality rate (%)” value ([1]; glutaryl histamine 45 mg/kg) was 90% and the “Survival rate (%)” value ([1]; glutaryl histamine 45 mg/kg) was 10%. The died/survived animals [2, 3] was 0/10, the died/survived animals [2, 4] was 0/10 and the died/survived animals [2, 5] was 0/10. For the same molecule, the died/survived animals [2, 6] was 0/10, the died/survived animals [2, 7] was 0/10 and the died/survived animals [2, 8] was 0/10. The died/survived animals [2, 9] was 0/10, the died/survived animals [2, 10] was 0/10 and the died/survived animals [2, 11] was 1/9. For the same molecule, the died/survived animals [2, 12] was 1/9, the died/survived animals [2, 13] was 1/9 and the died/survived animals [2, 14] was 2/8. For the same molecule, the died/survived animals [2, 15] was 2/8, the died/survived animals [2, 16] was 3/7 and the died/survived animals [2, 17] was 4/6. For the same molecule, the died/survived animals [2, 18] was 3/7, the died/survived animals [2, 19] was 4/6 and the died/survived animals [2, 20] was 5/5. For the same molecule, the died/survived animals [2, 21] was 4/6, the died/survived animals [2, 22] was 6/4 and the died/survived animals [2, 23] was 7/3. For the same molecule, the died/survived animals [2, 24] was 6/4, the died/survived animals [2, 25] was 7/3 and the died/survived animals [2, 26] was 8/2. The died/survived animals [2, 27] was 7/3, the died/survived animals [2, 28] was 7/3 and the died/survived animals [2, 29] was 8/2. The died/survived animals [2, 30] was 8/2, the died/survived animals [2, 31] was 7/3 and the died/survived animals [2, 32] was 8/2. The “Mortality rate (%)” value ([2]; glutaryl histamine 15 mg/kg) was 80%, the “Survival rate (%)” value ([2]; glutaryl histamine 15 mg/kg) was 20% and the “Mortality rate (%)” value ([2]; glutaryl histamine 30 mg/kg) was 70%. The “Survival rate (%)” value ([2]; glutaryl histamine 30 mg/kg) was 30%, the “Mortality rate (%)” value ([2]; glutaryl histamine 45 mg/kg) was 80% and the “Survival rate (%)” value ([2]; glutaryl histamine 45 mg/kg) was 20%.
